Data published in US5110800A, “Derivatives of erythromycylamine” (Eli Lilly and Company, priority 1989, dated 1992).
≈ marks a conversion by molar mass, not a printed value. Where two headings read alike, the source gives them in different places.

What was measured:
Assay in all cases: MIC, standard agar-dilution assay
Type in all cases: cell-based
[1] = test system: Staphylococcus epidermidis 222
[2] = test system: Staphylococcus epidermidis EPI1; details: EPI1, read-out: minimal inhibitory concentration (MIC)
Description: (§1) In addition to excellent in vitro activity against erythromycin-sensitive bacteria, several members of this new series have shown in vitro activity against erythromycin-resistant strains. These include strains which are inducibly-resistant to erythromycin (S. aureus V41 and X400 and S. epidermidis EPI1) and even strains which are constitutively-resistant (S. epidermidis 270).

[3] = test system: Streptococcus sp. group D X66; details: Streptococcus, read-out: minimal inhibitory concentration (MIC)
[4] = test system: Haemophilus influenzae C.L.; details: Haemophilus influenzae, read-out: minimal inhibitory concentration (MIC)
[5] = test system: Streptococcus pyogenes C203; details: Streptococcus pyogenes
Escherichia coli EC14 = details: Escherichia coli
[6] = test system: Staphylococcus aureus X1.1; details: Staphylococcus aureus, X1.1, read-out: minimal inhibitory concentration (MIC)
[7] = test system: Streptococcus sp. group D 2041; details: Streptococcus, read-out: minimal inhibitory concentration (MIC)
[8] = test system: Haemophilus influenzae 76; details: Haemophilus influenzae, 76; Table IV; ampicillin-resistant strain; read-out: minimal inhibitory concentration (MIC)
[9] = test system: Staphylococcus aureus V41; details: Staphylococcus aureus
Description: as §1

[10] = test system: Staphylococcus epidermidis 270
Description: as §1

[11] = test system: Staphylococcus aureus X400; details: Staphylococcus aureus
Description: as §1

[12] = test system: Staphylococcus aureus S13E; details: Staphylococcus aureus, S13E, read-out: minimal inhibitory concentration (MIC)
[13] = test system: Klebsiella pneumoniae X68; details: Klebsiella pneumoniae
[14] = test system: Streptococcus pneumoniae Park I; details: Streptococcus pneumoniae, read-out: minimal inhibitory concentration (MIC)
[15] = Staphylococcus epidermidis, 222, read-out: minimal inhibitory concentration (MIC)
[16] = Table IV, ampicillin-sensitive strain
[17] = C203, read-out: minimal inhibitory concentration (MIC)
[18] = EC14, read-out: minimal inhibitory concentration (MIC)
[19] = V41, Table IV, penicillin-resistant strain, inducibly erythromycin-resistant, read-out: minimal inhibitory concentration (MIC)
[20] = Staphylococcus epidermidis, 270, Table IV, constitutively erythromycin-resistant, read-out: minimal inhibitory concentration (MIC)
[21] = X400, Table IV, methicillin-resistant strain, inducibly erythromycin-resistant, read-out: minimal inhibitory concentration (MIC)
[22] = X68, read-out: minimal inhibitory concentration (MIC)
[23] = EC14, Table IV, agar dilution, read-out: minimal inhibitory concentration (MIC)
[24] = X68, Table IV, agar dilution, read-out: minimal inhibitory concentration (MIC)

Compound | MIC [1, 15] | MIC [3] | MIC [4, 16] | MIC [5, 17] | MIC (Escherichia coli EC14; [18]) | MIC [6] | MIC ([7]; Table IV, agar dilution) | MIC [8] | MIC [9, 19] | MIC [10, 20] | MIC [11, 21] | MIC [12] | MIC [13, 22] | MIC [4] | MIC (Escherichia coli EC14; [23]) | MIC [13, 24] | MIC [7] | also measured
CCCN1CO[C@@H]2[C@@H](C)[C@@H]1[C@H](C)C[C@@](C)(O)[C@H](O[C@@H]1O[C@H](C)C[C@H](N(C)C)[C@H]1O)[C@@H](C)[C@H](O[C@H]1C[C@@](C)(OC)[C@@H](O)[C@H](C)O1)[C@@H](C)C(=O)O[C@H](CC)[C@@]2(C)O [Compound 59] | 0.125 µg/mL (≈ 0.158 µM) | 0.125 µg/mL (≈ 0.158 µM) |  |  |  |  |  |  |  |  |  |  |  |  |  |  |  | MIC [2]: > 128 µg/mL
CC[C@H]1OC(=O)[C@H](C)[C@@H](O[C@H]2C[C@@](C)(OC)[C@@H](O)[C@H](C)O2)[C@H](C)[C@@H](O[C@@H]2O[C@H](C)C[C@H](N(C)C)[C@H]2O)[C@](C)(O)C[C@@H](C)[C@H](NCCOCCOC)[C@H](C)[C@@H](O)[C@H]1C [Compound 49] | 1 µg/mL (≈ 1.22 µM) | 0.25 µg/mL (≈ 0.304 µM) | 4 µg/mL (≈ 4.87 µM) | 0.015 µg/mL (≈ 0.0183 µM) | 128 µg/mL (≈ 156 µM) | 1 µg/mL (≈ 1.22 µM) | 4 µg/mL (≈ 4.87 µM) | 8 µg/mL (≈ 9.74 µM) | 128 µg/mL (≈ 156 µM) | > 128 µg/mL | > 128 µg/mL | 0.5 µg/mL (≈ 0.609 µM) | 128 µg/mL (≈ 156 µM) |  |  |  |  | MIC [14]: 0.015 µg/mL (≈ 0.0183 µM)
CC[C@H]1OC(=O)[C@H](C)[C@@H](O[C@H]2C[C@@](C)(OC)[C@@H](O)[C@H](C)O2)[C@H](C)[C@@H](O[C@@H]2O[C@H](C)C[C@H](N(C)C)[C@H]2O)[C@](C)(O)C[C@@H](C)[C@H](NCCCC#N)[C@H](C)[C@@H](O)[C@]1(C)O [Compound 29, 9-Deoxo-9-[(3-cyanopropyl)amino]erythromycin] | 1 µg/mL (≈ 1.25 µM) | 0.125 µg/mL (≈ 0.156 µM) |  | 1 µg/mL (≈ 1.25 µM) |  | 1 µg/mL (≈ 1.25 µM) | 4 µg/mL (≈ 4.99 µM) | 4 µg/mL (≈ 4.99 µM) |  |  |  | 128 µg/mL (≈ 160 µM) | 128 µg/mL (≈ 160 µM) | 2 µg/mL (≈ 2.49 µM) | 64 µg/mL (≈ 79.8 µM) |  |  | MIC ([9]; V41, read-out: minimal inhibitory concentration (MIC)): > 128 µg/mL; MIC ([10]; Staphylococcus epidermidis, 270, read-out: minimal inhibitory concentration (MIC)): > 128 µg/mL; MIC ([11]; X400, read-out: minimal inhibitory concentration (MIC)): > 128 µg/mL
CCCCCCCCCCN[C@@H]1[C@H](C)[C@@H](O)[C@@H](C)[C@@H](CC)OC(=O)[C@H](C)[C@@H](O[C@H]2C[C@@](C)(OC)[C@@H](O)[C@H](C)O2)[C@H](C)[C@@H](O[C@@H]2O[C@H](C)C[C@H](N(C)C)[C@H]2O)[C@](C)(O)C[C@H]1C [Compound 41] | 0.5 µg/mL (≈ 0.582 µM) | 0.5 µg/mL (≈ 0.582 µM) | 8 µg/mL (≈ 9.31 µM) |  |  | 2 µg/mL (≈ 2.33 µM) | 4 µg/mL (≈ 4.66 µM) | 4 µg/mL (≈ 4.66 µM) | 4 µg/mL (≈ 4.66 µM) | 8 µg/mL (≈ 9.31 µM) | 4 µg/mL (≈ 4.66 µM) | 1 µg/mL (≈ 1.16 µM) |  |  | > 128 µg/mL | > 128 µg/mL |  | MIC ([5]; C203, Table IV, agar dilution, read-out: minimal inhibitory concentration (MIC)): 0.03 µg/mL (≈ 0.0349 µM); MIC ([14]; Table IV, agar dilution): 0.03 µg/mL (≈ 0.0349 µM)
C=CCCCCCCCCCN[C@@H]1[C@H](C)[C@@H](O)[C@](C)(O)[C@@H](CC)OC(=O)[C@H](C)[C@@H](O[C@H]2C[C@@](C)(OC)[C@@H](O)[C@H](C)O2)[C@H](C)[C@@H](O[C@@H]2O[C@H](C)C[C@H](N(C)C)[C@H]2O)[C@](C)(O)C[C@H]1C [Compound 28, 9-Deoxo-9-[(undec-10-enyl)amino]erythromycin] | 1 µg/mL (≈ 1.13 µM) | 0.125 µg/mL (≈ 0.141 µM) |  | 1 µg/mL (≈ 1.13 µM) |  | 2 µg/mL (≈ 2.25 µM) |  | 2 µg/mL (≈ 2.25 µM) | 8 µg/mL (≈ 9.02 µM) | 32 µg/mL (≈ 36.1 µM) | 8 µg/mL (≈ 9.02 µM) | 2 µg/mL (≈ 2.25 µM) |  | 2 µg/mL (≈ 2.25 µM) | > 128 µg/mL | > 128 µg/mL | 2 µg/mL (≈ 2.25 µM) | 
CCOC(=O)C1CC1CN[C@@H]1[C@H](C)[C@@H](O)[C@](C)(O)[C@@H](CC)OC(=O)[C@H](C)[C@@H](O[C@H]2C[C@@](C)(OC)[C@@H](O)[C@H](C)O2)[C@H](C)[C@@H](O[C@@H]2O[C@H](C)C[C@H](N(C)C)[C@H]2O)[C@](C)(O)C[C@H]1C (stereo partly drawn) [Compound 27, 9-Deoxo-9-[[[2-(ethoxycarbonyl)cyclopropyl]methyl]amino]erythromycin] | 0.5 µg/mL (≈ 0.581 µM) | 0.125 µg/mL (≈ 0.145 µM) |  | 0.5 µg/mL (≈ 0.581 µM) | 128 µg/mL (≈ 149 µM) | 1 µg/mL (≈ 1.16 µM) |  | 2 µg/mL (≈ 2.32 µM) | > 128 µg/mL | > 128 µg/mL | > 128 µg/mL | 1 µg/mL (≈ 1.16 µM) | 128 µg/mL (≈ 149 µM) | 2 µg/mL (≈ 2.32 µM) |  |  | 2 µg/mL (≈ 2.32 µM) | 
CC[C@H]1OC(=O)[C@H](C)[C@@H](O[C@H]2C[C@@](C)(OC)[C@@H](O)[C@H](C)O2)[C@H](C)[C@@H](O[C@@H]2O[C@H](C)C[C@H](N(C)C)[C@H]2O)[C@](C)(O)C[C@@H](C)[C@H](NCCOC)[C@H](C)[C@@H](O)[C@]1(C)O [Compound 31, 9-Deoxo-9-[(2-Methoxyethyl)amino]erythromycin] |  |  |  | 0.06 µg/mL (≈ 0.0757 µM) | 16 µg/mL (≈ 20.2 µM) | 0.5 µg/mL (≈ 0.63 µM) |  | 2 µg/mL (≈ 2.52 µM) | > 128 µg/mL | > 128 µg/mL | > 128 µg/mL | 0.5 µg/mL (≈ 0.63 µM) |  | 0.5 µg/mL (≈ 0.63 µM) |  | 32 µg/mL (≈ 40.4 µM) | 8 µg/mL (≈ 10.1 µM) | MIC ([1]; Staphylococcus epidermidis, 222, Table IV, agar dilution, read-out: minimal inhibitory concentration (MIC)): 0.25 µg/mL (≈ 0.315 µM); MIC ([14]; Table IV, agar dilution): 0.03 µg/mL (≈ 0.0378 µM); MIC ([3]; Table IV, agar dilution): 0.125 µg/mL (≈ 0.158 µM)
CCCN[C@@H]1[C@H](C)[C@@H](O)[C@@H](C)[C@@H](CC)OC(=O)[C@H](C)[C@@H](O[C@H]2C[C@@](C)(OC)[C@@H](O)[C@H](C)O2)[C@H](C)[C@@H](O[C@@H]2O[C@H](C)C[C@H](N(C)C)[C@H]2O)[C@](C)(O)C[C@H]1C [Compound 38] | 0.5 µg/mL (≈ 0.657 µM) | 0.125 µg/mL (≈ 0.164 µM) |  | 0.125 µg/mL (≈ 0.164 µM) |  | 0.5 µg/mL (≈ 0.657 µM) |  | 4 µg/mL (≈ 5.26 µM) | 8 µg/mL (≈ 10.5 µM) | > 128 µg/mL | 64 µg/mL (≈ 84.1 µM) | 1 µg/mL (≈ 1.31 µM) | 128 µg/mL (≈ 168 µM) | 2 µg/mL (≈ 2.63 µM) | 64 µg/mL (≈ 84.1 µM) |  | 2 µg/mL (≈ 2.63 µM) | MIC [14]: 0.125 µg/mL (≈ 0.164 µM)
CC[C@H]1OC(=O)[C@H](C)[C@@H](O[C@H]2C[C@@](C)(OC)[C@@H](O)[C@H](C)O2)[C@H](C)[C@@H](O[C@@H]2O[C@H](C)C[C@H](N(C)C)[C@H]2O)[C@](C)(O)C[C@@H](C)[C@H](NCCC2=C(C)CCCC2(C)C)[C@H](C)[C@@H](O)[C@]1(C)O [Compound 30, 9-Deoxo-9-[[2-(2,6,6-trimethyl-1-cyclohexen-1-yl)ethyl]amino]erythromycin] | 1 µg/mL (≈ 1.13 µM) | 0.125 µg/mL (≈ 0.141 µM) | 4 µg/mL (≈ 4.52 µM) | 0.5 µg/mL (≈ 0.565 µM) |  | 1 µg/mL (≈ 1.13 µM) |  | 4 µg/mL (≈ 4.52 µM) | 16 µg/mL (≈ 18.1 µM) | 64 µg/mL (≈ 72.3 µM) | 32 µg/mL (≈ 36.1 µM) | 2 µg/mL (≈ 2.26 µM) |  |  | > 128 µg/mL | > 128 µg/mL | 2 µg/mL (≈ 2.26 µM) | 
